Results on 1 molecule are retold here after ChEMBL document CHEMBL1156596, “Overcoming undesirable CYP1A2 inhibition of pyridylnaphthalene-type aldosterone synthase inhibitors: influence of heteroaryl derivatization on potency and selectivity” (J Med Chem, 2008).

Series [1] has as its target T1, CYP17 (Homo sapiens, UniProt P05093).
T1 sequence (P05093 whole entry): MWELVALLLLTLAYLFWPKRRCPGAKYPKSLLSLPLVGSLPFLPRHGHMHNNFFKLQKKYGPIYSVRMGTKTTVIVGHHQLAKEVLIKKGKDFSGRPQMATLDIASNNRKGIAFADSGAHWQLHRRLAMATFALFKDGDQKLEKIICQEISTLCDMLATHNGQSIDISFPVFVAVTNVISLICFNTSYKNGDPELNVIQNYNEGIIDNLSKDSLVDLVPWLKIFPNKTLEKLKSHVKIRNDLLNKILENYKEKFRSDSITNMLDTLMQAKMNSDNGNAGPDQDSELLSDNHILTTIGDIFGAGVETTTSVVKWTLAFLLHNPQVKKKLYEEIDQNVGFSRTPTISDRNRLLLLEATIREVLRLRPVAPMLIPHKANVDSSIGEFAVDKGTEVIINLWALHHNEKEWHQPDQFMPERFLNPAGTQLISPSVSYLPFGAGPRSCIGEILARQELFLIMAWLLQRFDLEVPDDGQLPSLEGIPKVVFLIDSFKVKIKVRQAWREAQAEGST
Kind of series: Inhibition of human recombinant CYP17 expressed in Escherichia coli at 2 uM.

Series [2] has as its target T2, Cytochrome P450 2B6 (Homo sapiens, UniProt P20813).
T2 sequence (P20813 whole entry): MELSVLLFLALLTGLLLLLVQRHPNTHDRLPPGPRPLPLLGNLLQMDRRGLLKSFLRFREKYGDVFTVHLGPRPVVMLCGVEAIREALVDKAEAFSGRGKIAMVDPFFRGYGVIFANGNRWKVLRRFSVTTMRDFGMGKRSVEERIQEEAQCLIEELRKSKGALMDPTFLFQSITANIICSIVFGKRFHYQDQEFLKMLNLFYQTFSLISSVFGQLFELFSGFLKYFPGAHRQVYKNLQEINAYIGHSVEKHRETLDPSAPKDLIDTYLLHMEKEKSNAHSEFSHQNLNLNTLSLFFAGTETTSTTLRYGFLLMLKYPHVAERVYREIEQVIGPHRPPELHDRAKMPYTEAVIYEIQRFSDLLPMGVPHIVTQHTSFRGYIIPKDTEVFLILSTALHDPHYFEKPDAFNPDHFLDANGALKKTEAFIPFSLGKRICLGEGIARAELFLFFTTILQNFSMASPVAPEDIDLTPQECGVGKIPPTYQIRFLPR
The series can be described thus: Inhibition of human recombinant CYP2B6 expressed in insect microsomes. It counts as ADME, Microsome.

Series [3] addresses Cytochrome P450 2C9 (Homo sapiens, UniProt P11712). Kind of series: Inhibition of human recombinant CYP2C9 expressed in insect microsomes. The series is classed as ADME, Microsome.
Series [4] addresses Cytochrome P450 2D6 (Homo sapiens, UniProt P10635). Kind of series: Inhibition of human recombinant CYP2D6 expressed in insect microsomes. The series is classed as ADME, Microsome.
Series [5] addresses Cytochrome P450 3A4 (Homo sapiens, UniProt P08684). The series can be described thus: Inhibition of human recombinant CYP3A4 expressed in insect microsomes. It counts as ADME, Microsome.
A short description of series [6]: Terminal half life in Wistar rat at 5 mg/kg, po. The series is classed as ADME, organism-based. Set-up: dose 5 mg/kg, route oral. As to conditions: in vivo.
Series [7] in a line: Plasma concentration in Wistar rat plasma at 5 mg/kg, po after 24 hrs. It counts as ADME, organism-based. Set-up: dose 5 mg/kg, route oral.
Series [8] in a line: Tmax in Wistar rat at 5 mg/kg, po. It counts as ADME, organism-based. Also on record: dose 5 mg/kg, route oral. As to conditions: in vivo.
The target in series [9] is T3, Cytochrome P450 1A2 (Homo sapiens, UniProt P05177).
T3 sequence (P05177 whole entry): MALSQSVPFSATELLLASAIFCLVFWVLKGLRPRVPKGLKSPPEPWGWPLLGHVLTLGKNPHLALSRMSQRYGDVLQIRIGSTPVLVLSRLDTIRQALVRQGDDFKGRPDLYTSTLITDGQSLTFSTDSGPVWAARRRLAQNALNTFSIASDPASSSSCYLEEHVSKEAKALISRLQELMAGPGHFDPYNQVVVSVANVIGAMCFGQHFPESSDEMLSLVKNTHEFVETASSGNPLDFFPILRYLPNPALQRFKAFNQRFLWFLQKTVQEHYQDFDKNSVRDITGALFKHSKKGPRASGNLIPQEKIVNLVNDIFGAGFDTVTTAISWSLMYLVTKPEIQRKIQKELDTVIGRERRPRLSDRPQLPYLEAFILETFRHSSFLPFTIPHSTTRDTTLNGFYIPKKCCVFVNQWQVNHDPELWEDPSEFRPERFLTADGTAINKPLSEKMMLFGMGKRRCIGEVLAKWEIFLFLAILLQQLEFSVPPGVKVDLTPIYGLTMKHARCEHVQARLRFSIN

Chain of Cytochrome P450 2D6 (P10635 whole entry): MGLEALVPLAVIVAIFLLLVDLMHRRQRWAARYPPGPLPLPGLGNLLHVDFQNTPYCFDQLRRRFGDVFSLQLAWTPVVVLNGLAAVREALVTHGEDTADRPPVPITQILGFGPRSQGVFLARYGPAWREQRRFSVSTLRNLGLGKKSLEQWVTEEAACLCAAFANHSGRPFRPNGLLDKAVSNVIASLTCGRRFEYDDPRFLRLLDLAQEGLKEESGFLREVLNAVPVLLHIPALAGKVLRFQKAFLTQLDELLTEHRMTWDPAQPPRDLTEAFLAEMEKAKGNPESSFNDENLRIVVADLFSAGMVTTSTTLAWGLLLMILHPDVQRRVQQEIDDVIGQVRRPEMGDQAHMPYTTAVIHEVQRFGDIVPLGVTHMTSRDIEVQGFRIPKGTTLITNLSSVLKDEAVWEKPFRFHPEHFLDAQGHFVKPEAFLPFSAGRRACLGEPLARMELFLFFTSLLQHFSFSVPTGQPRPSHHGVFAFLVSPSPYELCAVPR
Chain of Cytochrome P450 2C9 (P11712 whole entry): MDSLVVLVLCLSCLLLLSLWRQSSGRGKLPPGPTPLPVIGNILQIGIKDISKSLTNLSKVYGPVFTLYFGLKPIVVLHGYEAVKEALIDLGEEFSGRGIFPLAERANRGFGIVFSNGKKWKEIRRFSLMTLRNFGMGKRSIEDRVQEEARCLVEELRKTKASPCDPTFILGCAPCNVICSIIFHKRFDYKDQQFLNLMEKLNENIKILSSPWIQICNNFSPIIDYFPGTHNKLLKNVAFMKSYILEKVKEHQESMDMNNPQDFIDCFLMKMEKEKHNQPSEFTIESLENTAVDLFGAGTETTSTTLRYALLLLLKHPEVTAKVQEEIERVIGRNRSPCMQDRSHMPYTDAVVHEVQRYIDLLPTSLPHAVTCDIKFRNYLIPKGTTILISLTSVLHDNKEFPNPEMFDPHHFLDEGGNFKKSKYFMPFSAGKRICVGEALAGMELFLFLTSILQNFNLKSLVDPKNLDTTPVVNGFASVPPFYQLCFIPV
Chain of Cytochrome P450 3A4 (P08684 whole entry): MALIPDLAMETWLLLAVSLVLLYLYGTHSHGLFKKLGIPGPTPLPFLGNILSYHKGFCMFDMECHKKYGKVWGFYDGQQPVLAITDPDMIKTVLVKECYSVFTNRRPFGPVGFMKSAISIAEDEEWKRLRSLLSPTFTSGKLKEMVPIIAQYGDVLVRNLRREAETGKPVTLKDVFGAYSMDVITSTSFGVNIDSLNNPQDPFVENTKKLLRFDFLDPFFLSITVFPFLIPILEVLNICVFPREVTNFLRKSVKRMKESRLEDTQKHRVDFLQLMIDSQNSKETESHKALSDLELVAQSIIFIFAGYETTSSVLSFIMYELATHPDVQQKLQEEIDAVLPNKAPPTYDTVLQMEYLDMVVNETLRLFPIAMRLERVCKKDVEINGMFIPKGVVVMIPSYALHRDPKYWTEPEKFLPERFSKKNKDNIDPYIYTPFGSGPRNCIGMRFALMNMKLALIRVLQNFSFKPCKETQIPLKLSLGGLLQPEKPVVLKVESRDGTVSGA

`COc1ccc2cc(-c3cncc4ccccc34)ccc2c1`: the inhibition at 2 µM in series [1] is 39%. Besides, the IC50 was 16.5 µM in [2]; 1.27 µM in series [3]; 33.1 µM in series [4]; 3.54 µM in series [5]; 1.62 µM in series [9]. The same molecule had a half-life in series [6] of 3.2 h. Also, in series [7], the concentration at 24 h is 1.28 ng/mL. Further, the Tmax in series [8] was 6 h.
